Consider four compounds from patent US9057727B2, “Screening methods using G-protein coupled receptors and related compositions” (The General Hospital Corporation, priority 2007, dated 2015).

Square brackets hold non-standard residues; d marks the D form. Peptide text beside a SMILES is read from it. hArg = N=C(N)NCCCC[C@H](N)C(=O)O; Nle = CCCC[C@H](N)C(=O)O; Aib = CC(C)(N)C(=O)O

In experiment [1] the target is T1, ROS 17/2.8 cells (endogenous rat PTHR) (Rattus norvegicus, UniProt P25961).
T1 construct: the rat osteoblastic cell line ROS17/2.8, which endogenously expresses the rat PTHR; endogenous in cells; host or cells: ROS 17/2.8 rat osteosarcoma cells (membranes or intact cells)
T1 sequence (P25961 27-591): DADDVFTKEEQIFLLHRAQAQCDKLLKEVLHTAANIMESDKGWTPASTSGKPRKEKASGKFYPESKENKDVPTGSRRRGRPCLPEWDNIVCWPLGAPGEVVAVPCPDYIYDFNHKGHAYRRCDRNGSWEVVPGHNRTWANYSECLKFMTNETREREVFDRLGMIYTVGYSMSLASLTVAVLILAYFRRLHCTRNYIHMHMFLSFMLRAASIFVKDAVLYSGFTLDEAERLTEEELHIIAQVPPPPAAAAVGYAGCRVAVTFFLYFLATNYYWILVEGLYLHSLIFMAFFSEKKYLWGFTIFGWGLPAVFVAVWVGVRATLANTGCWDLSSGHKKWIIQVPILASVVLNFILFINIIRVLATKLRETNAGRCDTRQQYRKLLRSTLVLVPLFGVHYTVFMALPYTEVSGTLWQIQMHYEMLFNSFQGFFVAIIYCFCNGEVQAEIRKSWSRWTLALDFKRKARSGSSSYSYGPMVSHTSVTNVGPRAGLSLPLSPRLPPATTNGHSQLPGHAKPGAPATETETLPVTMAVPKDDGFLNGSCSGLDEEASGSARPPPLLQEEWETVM
Briefly: Acute cAMP response in ROS 17/2.8 rat osteoblastic cells. As to conditions: 10^−7 M, hPTH(1-28) 10^−6 M, basal 3.7±0.4. The format is cell-based.

The nature of experiment [2]: Plasma cAMP in mice after subcutaneous injection. The format is in vivo. As for the experimental part:
FIGS. 9A-9D are graphs showing in vivo plasma cAMP levels in mice treated with PTH analogs. Wild-type mice were injected subcutaneously with vehicle (0.9% NaCl/0.05% Tween-20), or vehicle containing a PTH peptide at a dose-level of 10 to 1,000 nmol of peptide per kg of body weight, and at indicated times after injection, blood was withdrawn from the tail vein, and the amount of cAMP in the resulting plasma was quantified by radioimmuno assay. Each curve corresponds to a peptide at a defined concentration, as indicated in the graph keys. The plasma cAMP concentrations are plotted as picomole per μl plasma.
Wild-type mice were injected subcutaneously with vehicle (0.9% NaCl/0.05% Tween-20), or vehicle containing a PTH peptide so as to achieve a concentration ranging from 10 to 1000 nmol/kg of body weight. At the indicated times after injection, blood was withdrawn from the tail vein, and the amount of cAMP in the resulting plasma was quantified by radioimmuno assay (FIGS. 9A-9D).
Wild-type mice were injected subcutaneously with vehicle (0.9% NaCl/0.05% Tween-20), or vehicle containing a PTH peptide at a dose level of 10 to 1000 nmol/kg of body weight. At indicated times after injection, blood was withdrawn from the tail vein, and the amount of cAMP in the resulting plasma was quantified by radioimmuno assay. Ionized calcium in serum was measured as above and phosphate was measured by a U.V. spectroscopic kit assay.

For experiment [3], the target named is T2, human PTHR, G protein-coupled conformation (RG) (Homo sapiens, UniProt Q03431).
T2 construct: expressed in transfected cells; host or cells: COS-7, transient (Fugene-6); membranes
T2 sequence (Q03431 27-593): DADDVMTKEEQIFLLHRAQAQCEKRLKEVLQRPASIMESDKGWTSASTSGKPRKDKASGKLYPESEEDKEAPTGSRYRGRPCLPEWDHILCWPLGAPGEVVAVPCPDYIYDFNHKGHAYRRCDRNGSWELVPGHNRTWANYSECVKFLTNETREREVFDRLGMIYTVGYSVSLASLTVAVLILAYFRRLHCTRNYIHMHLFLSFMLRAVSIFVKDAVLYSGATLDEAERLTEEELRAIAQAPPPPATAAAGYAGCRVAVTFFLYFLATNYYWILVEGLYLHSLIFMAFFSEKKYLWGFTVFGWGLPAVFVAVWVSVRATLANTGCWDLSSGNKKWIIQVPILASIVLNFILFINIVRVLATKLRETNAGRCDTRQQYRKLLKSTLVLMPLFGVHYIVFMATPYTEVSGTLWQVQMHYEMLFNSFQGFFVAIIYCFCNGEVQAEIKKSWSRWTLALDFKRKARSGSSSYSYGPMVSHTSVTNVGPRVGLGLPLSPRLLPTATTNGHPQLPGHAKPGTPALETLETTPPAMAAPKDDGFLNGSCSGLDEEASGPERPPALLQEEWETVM
The experiment is described as follows: Competition binding to RG conformation of hPTHR (COS-7 membranes, GαsND, 125I-[Aib1,3,M]PTH(1-15) tracer). The following applies: Table 5; read-out: IC50 RG, ^125I-PTH(1-15) + GsND.

Experiment [4] has as its target T3, human PTHR, G protein-uncoupled conformation (R^0) (Homo sapiens, UniProt Q03431).
T3 construct: expressed in transfected cells; host or cells: COS-7, transient (Fugene-6)
T3 sequence (Q03431 27-593): T2 sequence (Q03431 27-593)
Briefly: Competition binding to R0 conformation of hPTHR (COS-7 membranes, GTPγS, 125I-PTH(1-34) tracer). In a few lines: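 Membranes from hPTHR-transfected COS-7 cells (20-100 μg/mL protein) incubated 90 min with radioligand (~150,000 cpm/ml) and unlabeled ligands, then filtered. Specific binding expressed as % of binding without competitor.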

The subject of experiment [5] is PTHR-CFPIC3/YFPCT (PTHR-cam). The experiment is described as follows: FRET analysis of ligand binding/receptor activation in HEK-293 cells. The class given is cell-based, human.
Source text: HEK-293 cells stably transfected with a PTHR construct (PTHR-cam) containing cyan fluorescent protein (CFP) in the third intracellular loop and yellow fluorescent protein (YFP) in the carboxy-terminal tail, were used to assess the kinetics of ligand binding to, and dissociation from the PTHR. With PTHR-cam, excitation of the CFP with ultraviolet light (λexc=436 nm) produces an intramolecular FRET to the YFP, which is observable as an increase in light emission from YFP (λemm=535 nm) and a decrease in light emission from CFP λemm=480 nm). This FRET signal occurs in the ground-state receptor and decreases upon agonist binding. […] Data are from a single experiment, and identical results were obtained in at least three others.
The approach used exploits an intramolecular FRET signal that occurs in a human PTHR construct, PTHR-CFPIC3/YFPCT (formerly called PTHR-cam). This construct contains cyan-fluorescent protein (CFP) in the third intracellular loop and yellow-fluorescent protein (YFP) in the carboxy-terminal tail. A FRET signal is produced by PTHR-CFPIC3/YFPCT in the basal state, and this signal diminishes upon agonist binding, likely due to conformational change that occurs upon activation.
HEK-293 cells stably expressing HEK-PTHR-CFPIC3/YFPCT (previously called HEK-PTHR-Cam cells (Vilardaga et al., Nat. Biotechnol. 21:807-812 (2003)) were grown on glass coverslips and processed for FRET analysis as described. With these cells, excitation of the CFP (donor) in PTHR-CFPIC3/YFPCT with ultraviolet light (λmax.ex.=436 nm; λmax.em.=480 nm) produces an intramolecular FRET to the YFP (acceptor), resulting in emission from that YFP (λmax.ex.=480 nm, λmax.em.=535 nm). This FRET response is observable as a decrease in intensity of CFP light emission at 480 nm, and an increase in intensity of YFP light emission at 535 nm. The FRET signal is produced by PTHR-CFPIC3/YFPCT in the ground-state receptor and decreases upon binding of an agonist. […] Fluorescence was monitored using a Zeiss inverted microscope equipped with a 100× objective and a dual emission photometric system (Til Photonics), coupled to an avalanche photodiode detection system and an analog-digital converter (Axon Instruments). The FRET signal detected upon excitation at 436 nm was calculated as the normalized FRET ratio: FYFP(535 nm)/FCFP(480 nm) where FYFP(535 nm) is the emission at 535 nm, corrected for spillover of the CFP signal into the YFP channel, and FCFP(480 nm) is the emission at 480 nm, corrected for spillover (minimal) of the YFP emission into the CFP channel. Changes in fluorescence emissions due to photo-bleaching were subtracted.
For the next experiment, the target named is T4, hPTHR (Homo sapiens, UniProt Q03431).
T4 sequence (Q03431 27-593): T2 sequence (Q03431 27-593)
Briefly: Delayed cAMP response after ligand wash-out in HKRK-B64 cells. The following applies: HKRK-B64, at two hours (so in the source); read-out: cAMP response after wash-out, % of maximum response. The format is cell-based. The arrangement: expressed in transfected cells.

The target in experiment [6] is T1, ROS 17/2.8 cells (endogenous rat PTHR). The experiment is described as follows: Delayed cAMP response in ROS 17/2.8 cells. The format is cell-based. As to the method:
The analogs used were [E^19],Mc-hPTH(1-34)OH (SEQ ID NO:21) and [A^23,E^19],Mc-hPTH(1-34)OH (SEQ ID NO:28) (Mc=Ala^1,3,12,Gln^10,Arg^11,Trp^14, Arg^19).
The data in FIG. 21B are expressed as a percent of the maximum response observed for each ligand, determined by incubating the cells with ligand in the presence of IBMX for 10 minutes (no ligand wash-out). These values were 67±6; 68±3; and 71±1 pmole/well, respectively. The basal (vehicle) cAMP value was 3.7±0.4 pmole/well.
Following treatment of cells with a ligand, the intracellular cAMP levels were measured by radioimmuno assay, as described (Shimizu et al., J. Biol. Chem. 276:49003-49012 (2001)). The capacities of ligands to produce a delayed cAMP response in cells after a brief exposure to the ligand was assessed as follows. […]

Experiment [7] is described as follows: Calcemic action in normal rats (blood ionized calcium). The format is in vivo. As to conditions: normal rats, i.v. The method, boiled down: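 Female SD-IGS rats, 8 weeks old, dosed intravenously at 1 ml/kg with peptides in PC-buffer (pH 5.0), 6 per group. Tail-vein blood ionized calcium corrected to pH 7.4 at baseline and 1, 2, 4, 6 h. Time course versus vehicle as mean ± SE.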

`CC[C@H](C)[C@H](NC(=O)[C@H](CCC(=O)O)NC(=O)[C@H](CO)NC(=O)[C@@H](NC(=O)[C@@H](N)CO)C(C)C)C(=O)N[C@@H](CCC(N)=O)C(=O)N[C@@H](CC(C)C)C(=O)N[C@@H](CCSC)C(=O)N[C@@H](Cc1c[nH]cn1)C(=O)N[C@@H](CC(N)=O)C(=O)N[C@@H](CC(C)C)C(=O)NCC(=O)N[C@@H](CCCCN)C(=O)N[C@@H](Cc1c[nH]cn1)C(=O)N[C@@H](CC(C)C)C(=O)N[C@@H](CC(N)=O)C(=O)N[C@@H](CO)C(=O)N[C@@H](CCSC)C(=O)N[C@@H](CCC(=O)O)C(=O)N[C@@H](CCCNC(=N)N)C(=O)N[C@H](C(=O)N[C@@H](CCC(=O)O)C(=O)N[C@@H](Cc1c[nH]c2ccccc12)C(=O)N[C@@H](CC(C)C)C(=O)N[C@@H](CCCNC(=N)N)C(=O)N[C@@H](CCCCN)C(=O)N[C@@H](CCCCN)C(=O)N[C@@H](CC(C)C)C(N)=O)C(C)C` [hPTH(1-28)NH2] (H-SVSEIQLMHNLGKHLNSMERVEWLRKKL-NH2; N-terminus assumed): in experiment [1], the “maximum cAMP response (ligand with IBMX 10 minutes, no wash-out)” value came to 68±3 pmole/well. Besides, in experiment [2], the “dose producing comparable increase in plasma cAMP” value was 1,000 nmol/kg.

Consider `CCCC[C@H](NC(=O)[C@H](CC(C)C)NC(=O)[C@H](CCC(N)=O)NC(=O)[C@@H](NC(=O)[C@H](CCC(=O)O)NC(=O)C(C)(C)NC(=O)[C@@H](NC(=O)C(C)(C)N)C(C)C)[C@@H](C)CC)C(=O)N[C@@H](Cc1c[nH]cn1)C(=O)N[C@@H](CCC(N)=O)C(=O)N[C@@H](CCCCNC(=N)N)C(=O)N[C@@H](C)C(=O)N[C@@H](CCCCN)C(=O)N[C@@H](Cc1c[nH]c2ccccc12)C(=O)N[C@@H](Cc1ccc(O)cc1)C(N)=O` [[Aib^1,3,M]rPTH(1-15)NH2, [Aib^1,3,Nle^8,Gln^10,homoarginine^11,Ala^12,Trp^14,Tyr^15]rPTH(1-15)NH2, reference compound] (H-[Aib]V[Aib]EIQL[Nle]HQ[hArg]AKWY-NH2; N-terminus assumed), for which the IC50 in experiment [3] stood at 0.74 ± 0.18 nM. Also, the “R0:RG” value in experiment [4] (Table 5, fold weaker affinity for R0 than RG) was 1,397. Besides, in experiment [5], the “FRET signal after exchange to ligand-free buffer, in words” value is “began to decay immediately upon exchange of the buffer to a ligand-free one”. The Emax on hPTHR was determined as 23%.

In the case of `CC[C@H](C)[C@H](NC(=O)[C@H](CCC(=O)O)NC(=O)[C@H](CO)NC(=O)[C@@H](NC(=O)[C@@H](N)CO)C(C)C)C(=O)N[C@@H](CCC(N)=O)C(=O)N[C@@H](CC(C)C)C(=O)N[C@@H](CCSC)C(=O)N[C@@H](Cc1c[nH]cn1)C(=O)N[C@@H](CC(N)=O)C(=O)N[C@@H](CC(C)C)C(=O)NCC(=O)N[C@@H](CCCCN)C(=O)N[C@@H](Cc1c[nH]cn1)C(=O)N[C@@H](CC(C)C)C(=O)N[C@@H](CC(N)=O)C(=O)N[C@@H](CO)C(=O)N[C@@H](CCSC)C(=O)N[C@@H](CCC(=O)O)C(=O)N[C@@H](CCCNC(=N)N)C(=O)N[C@H](C(=O)N[C@@H](CCC(=O)O)C(=O)N[C@@H](Cc1c[nH]c2ccccc12)C(=O)N[C@@H](CC(C)C)C(=O)N[C@@H](CCCNC(=N)N)C(=O)N[C@@H](CCCCN)C(=O)N[C@@H](CCCCN)C(=O)N[C@@H](CC(C)C)C(=O)N[C@@H](CCC(N)=O)C(=O)N[C@@H](CC(=O)O)C(=O)N[C@H](C(=O)N[C@@H](Cc1c[nH]cn1)C(=O)N[C@@H](CC(N)=O)C(=O)N[C@@H](Cc1ccccc1)C(N)=O)C(C)C)C(C)C` [hPTH(1-34)NH2], the “maximum cAMP response (ligand with IBMX 10 minutes, no wash-out)” value in experiment [1] stood at 67±6 pmole/well. The “dose producing comparable increase in plasma cAMP” value in experiment [2] came out at 50 nmol/kg.

For the compound “AVAEIQLMHQRAKWLNSMERVEALRKKLQDVHNF [[A^23,E^19],Mc-hPTH(1-34)OH]”, the “fold reduction of binding affinity for R^0 by Trp^23→Ala substitution” value in experiment [4] (versus [E^19,Mc]PTH(1-34)) came to 10 fold. The “duration of cAMP signaling, in words” value in experiment [6] is listed as “reduced duration of cAMP signaling in cells”. Besides, the “calcemic action (blood ionized calcium), in words” value in experiment [7] is on record as “reduced the hypercalcemic effect”.
